Measurements: patent publication US20090291048A1, “LEUKOCYTE-BINDING POLYPEPTIDES AND USES THEREOF” (Baker IDI Heart and Diabetes Institute Holdings Limited, priority 2005, published 2009)

System: GPIIb/IIIa (αIIbβ3, CD41/CD61), native or GFFKR-deleted, on CHO cells
Experiment: Flow cytometry cross-reactivity with GPIIb/IIIa-expressing CHO cells
Type: binding
Conditions: CHO cells with native (non-activated) or GFFKR-deleted (activated) GPIIb/IIIa
Method: Cross-reactivity with another fibrinogen binding integrin was assessed in flow cytometry using CHO cells expressing either a GFFKR-deleted and thereby activated GPIIb/IIIa or the native and thereby non-activated platelet integrin GPIIb/IIIa (details of cell generation have been described previously).^30,31 The expression of the activated conformation was determined by the binding of the activation-specific antibody Pac-1. MAN-1 binding was measured by an Alexa Fluor 488-conjugated anti-His-tag secondary antibody. […] Thus, no cross-reactivity to GPIIb/IIIa was seen. A typical result out of three experiments is shown.
Since one of the Mac-1 ligands, fibrinogen, also binds to the platelet integrin GPIIb/IIIa (αIIIbβ3, CD41/CD61) potential cross-reactivity of MAN-1 with this integrin was also evaluated. For this purpose, recombinant CHO cell lines were used, expressing native, non-activated and GFFKR-deleted, activated GPIIb/IIIa as described elsewhere (O'Toole et al J. Cell Biol. 1994; 124:1047-1059; Peter et al, J Exp Med. 1995; 181:315-326; Tadokoro et al Science. 2003; 302:103-106).

GPIIb/IIIa (αIIbβ3, CD41/CD61), native or GFFKR-deleted, on CHO cells, sequence (P08514 32-887 limits assumed, stated change not applied): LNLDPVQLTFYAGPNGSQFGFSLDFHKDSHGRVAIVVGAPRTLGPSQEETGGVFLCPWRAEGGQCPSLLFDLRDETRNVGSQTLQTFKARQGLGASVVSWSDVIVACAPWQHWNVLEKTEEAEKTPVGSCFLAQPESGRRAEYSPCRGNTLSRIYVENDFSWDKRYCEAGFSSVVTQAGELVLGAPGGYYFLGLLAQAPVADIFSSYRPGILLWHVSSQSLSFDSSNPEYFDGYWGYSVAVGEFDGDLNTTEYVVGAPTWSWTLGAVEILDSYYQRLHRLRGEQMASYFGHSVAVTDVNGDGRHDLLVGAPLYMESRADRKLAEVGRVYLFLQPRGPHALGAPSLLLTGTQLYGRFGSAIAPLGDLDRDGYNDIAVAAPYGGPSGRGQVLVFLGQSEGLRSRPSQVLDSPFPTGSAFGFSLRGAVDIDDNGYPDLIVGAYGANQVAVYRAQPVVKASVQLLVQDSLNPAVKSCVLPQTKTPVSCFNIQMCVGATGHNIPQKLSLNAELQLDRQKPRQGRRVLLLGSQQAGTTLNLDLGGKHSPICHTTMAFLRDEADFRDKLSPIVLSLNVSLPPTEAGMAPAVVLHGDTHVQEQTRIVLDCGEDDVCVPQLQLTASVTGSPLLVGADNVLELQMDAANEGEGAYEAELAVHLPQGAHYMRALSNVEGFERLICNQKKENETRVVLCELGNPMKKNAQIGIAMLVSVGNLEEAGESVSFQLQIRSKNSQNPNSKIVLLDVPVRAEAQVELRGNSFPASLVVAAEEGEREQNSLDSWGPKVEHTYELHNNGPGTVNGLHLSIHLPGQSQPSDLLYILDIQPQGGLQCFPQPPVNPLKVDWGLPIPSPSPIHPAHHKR
GPIIb/IIIa (αIIbβ3, CD41/CD61), native or GFFKR-deleted, on CHO cells, sequence (P08514 891-1019 limits assumed, stated change not applied): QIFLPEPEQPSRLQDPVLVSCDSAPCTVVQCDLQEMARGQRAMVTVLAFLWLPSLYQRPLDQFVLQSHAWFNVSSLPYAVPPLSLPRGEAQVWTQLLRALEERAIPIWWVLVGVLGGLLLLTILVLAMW
GPIIb/IIIa (αIIbβ3, CD41/CD61), native or GFFKR-deleted, on CHO cells, sequence (P05106 27-788, stated change not applied, further chain): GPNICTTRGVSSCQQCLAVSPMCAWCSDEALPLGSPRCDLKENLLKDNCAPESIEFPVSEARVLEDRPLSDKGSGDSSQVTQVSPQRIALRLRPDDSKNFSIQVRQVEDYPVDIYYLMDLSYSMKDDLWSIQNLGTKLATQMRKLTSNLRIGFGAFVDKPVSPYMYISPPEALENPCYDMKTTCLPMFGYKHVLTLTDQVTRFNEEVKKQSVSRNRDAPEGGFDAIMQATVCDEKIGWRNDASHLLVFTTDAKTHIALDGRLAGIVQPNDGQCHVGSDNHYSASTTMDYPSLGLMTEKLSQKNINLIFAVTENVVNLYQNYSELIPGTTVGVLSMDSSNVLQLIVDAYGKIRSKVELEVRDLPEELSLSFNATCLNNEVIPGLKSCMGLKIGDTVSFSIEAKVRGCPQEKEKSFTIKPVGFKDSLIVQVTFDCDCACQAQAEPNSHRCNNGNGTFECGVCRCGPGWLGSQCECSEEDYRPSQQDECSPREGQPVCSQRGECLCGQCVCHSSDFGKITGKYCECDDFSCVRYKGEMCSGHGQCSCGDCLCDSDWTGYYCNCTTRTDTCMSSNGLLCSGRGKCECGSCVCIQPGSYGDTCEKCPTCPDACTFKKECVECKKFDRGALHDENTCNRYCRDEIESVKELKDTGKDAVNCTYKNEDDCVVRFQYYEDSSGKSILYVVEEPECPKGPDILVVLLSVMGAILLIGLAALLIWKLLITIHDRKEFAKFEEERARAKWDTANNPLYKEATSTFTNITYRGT

Question: With Pac-1 as the substance, how does the “Binding to GPIIb/IIIa” value read?
Answer: binds to the activated GPIIb/IIIa
